According to patent publication US9028887B2, “Method improve spatial memory via pterostilbene administration” (The United States of America, as represented by the …, priority 2007, dated 2015):

Assays:
[1] = tested on: 19-month-old male Fischer 344 rats; assay: Morris Water Maze, working memory version, in aged rats on pterostilbene diet; type: in vivo, rat; settings: for distance to find the platform, Trial 1 vs Trial 2: days 3 and 4; for latency to find the platform, Trial 1 vs Trial 2: days 3 and 4, ninth week
Source text: Forty-two 19-month-old male Fischer 344 rats were obtained from the NIA colony (Harlan Sprague Dawley, Indianapolis, Ind.). The rats were individually housed in stainless steel mesh suspended cages, provided food and water ad libitum, and maintained on a 12-hour light/dark cycle. The rats were given one week to adjust to their new environment, after which time they were weight matched and then randomly placed on one of three diets for 12-13 weeks total (n=14/group): control, low dose pterostilbene (0.004%, equivalent to 2.5 mg/kg body weight), or high dose pterostilbene (0.016%, equivalent to 10 mg/kg body weight). All animals were observed daily for clinical signs of disease.
The pterostilbene diets were prepared at Harlan Teklad (Madison, Wis.) by adding crystalline pterostilbene to the control diet, of 40 mg/kg diet, 0.004% w/w for low dose, 160 mg/kg diet, 0.016% w/w for high dose. The amount of corn in the control diet was adjusted to compensate for the added volume of the pterostilbene. The rats were maintained on either the control or pterostilbene diet for eight weeks before motor testing and nine weeks before cognitive testing at 21 months.
The Morris Water Maze (MWM) is a method to test spatial learning and memory of subjects. Developed by Richard Morris, the MWM is an age and diet sensitive learning paradigm that requires a subject to locate a hidden platform (10 cm in diameter) positioned below the surface (2 cm) of a circular pool of water (134 cm in diameter×50 cm in height, maintained at 23° C.) based on distal cues, and to remember its location from the previous trial. Accurate navigation is rewarded with escape from the water onto the platform, for which the subject uses distal cues such as posters, the experimenter, a computer, cage racks, to effectively locate. The working memory version of the MWM (Brandeis et al., 1989. Int J Neurosci. 48:29-69 Morris R., 1984. J Neurosci Methods. 11; 47-60.) was performed daily for four consecutive days during the ninth week of treatment, with a morning and an afternoon session, two trials each session, with a 10 minute inter-trial interval between the two trials. Rats were tested in a random manner, with the restriction that one subject from each group be tested in succession. At the beginning of each trial, the subject was gently immersed in the water at one of four randomized start locations. […] Once the subject reached the platform, it remained there for 15 sec (Trial 1; reference memory or acquisition trial). The subject was returned to its home cage between trials (10 min). Trial 2 (the working memory or retrieval trial) used the same platform location and start position as Trial 1. Performances were videotaped and analyzed with image tracking software (HVS Image, UK), which allows measurements of latency (sec) time to find the platform), path length (cm), and swimming speed (cm/sec; […]). A detailed description of the maze and the paradigm used is disclosed in Shukitt-Hale et al., 1998. Experimental Gerontology, 33:615-624, and incorporated herein by reference.

striatal slices = assay: Oxotremorine enhancement of K+-evoked dopamine release from striatal slices of diet-fed rats; type: in vivo, rat; settings: for dopamine release (oxotremorine-enhanced striatal K+-ERDA), H2O2-treated vs non-H2O2-treated: 50 μM H2O2, 500 μM oxotremorine
Source text: The muscarinic enhancement of K^+-evoked dopamine release (K^+-ERDA) from superfused striatal slices is an indicator of receptor sensitivity and striatal function and is sensitive to aging and oxidative stress as disclosed in Joseph et al., 1988. Brain Res., 454:140-8: Joseph et al., 1988. Brain Res., 454:149-55; Joseph J., et al., 1990. Brain Res., 537:40-48; Joseph et al., 1996. Free Radic. Biol. Med., 20: 821-30 and herein incorporated by reference. Additionally, muscarinic enhancement of dopamine release is sensitive to dietary supplementation as disclosed in Joseph et al., 1998. J. Neurosci., 18: 8047-8055; Joseph et al., 1999. J. Neurosci., 19: 8114-8121; Youdim et al., 2000. Nutr Neurosci., 3: 383-97; Shukitt-Hale et al., 2005. Age., 27: 49-57; Shukitt-Hale et al., 2006. Nutrition, 22: 295-302 and herein incorporated by reference. The protective capacity of the striatal tissue obtained from the control and supplemented groups were assessed by examining differences in the oxotremorine-enhancement of striatal K^+-ERDA. Dopamine release was conducted 2-3 weeks following behavioral testing on freshly dissected and cross cut (300 μm, McIlwain tissue chopper) striatal slices from subject brains that were fed a high dose, low dose and control diet. The slices were placed in small glass vials containing modified Krebs-Ringer basal release medium (BRM) that had been bubbled for 30 min with 95% O2/5% CO2 and containing 21 mM NaHCO3, 3.4 mM glucose, 1.3 mM NaH2PO4, 1 mM EGTA, 0.93 mM MgCl2, 127 mM NaCl and 2.5 mM KCl (low KCl) (pH 7.4). Half of the tissue was treated with 50 μM […] to assess the effect of diet under conditions of oxidative stress. […] Following this equilibration period, the medium was switched to one containing (in mM) KCl 30 (high KCl), CaCl2.2H2O 1.26 (in place of EGTA), NaCl 57, and 0 or 500 μM oxotremorine and then the enhancement of K^+-ERDA was assessed. Dopamine release was quantitated by HPLC coupled to electrochemical detection and expressed as pmoles/mg protein as determined by the Lowry procedure.

cyclooxygenase-1 = cyclooxygenase-1 (Homo sapiens, UniProt P23219); settings: Rimando et al., 2002; cited from earlier work
weanling male F344 rats = settings: Suh et al., 2007; cited from earlier work
[2] = compared with resveratrol; Rimando et al., 2002; Stivala et al., 2001; cited from earlier work
[3] = high dose diet 0.016% (10 mg/kg body weight)

Chain of cyclooxygenase-1 (P23219 24-599, species assumed): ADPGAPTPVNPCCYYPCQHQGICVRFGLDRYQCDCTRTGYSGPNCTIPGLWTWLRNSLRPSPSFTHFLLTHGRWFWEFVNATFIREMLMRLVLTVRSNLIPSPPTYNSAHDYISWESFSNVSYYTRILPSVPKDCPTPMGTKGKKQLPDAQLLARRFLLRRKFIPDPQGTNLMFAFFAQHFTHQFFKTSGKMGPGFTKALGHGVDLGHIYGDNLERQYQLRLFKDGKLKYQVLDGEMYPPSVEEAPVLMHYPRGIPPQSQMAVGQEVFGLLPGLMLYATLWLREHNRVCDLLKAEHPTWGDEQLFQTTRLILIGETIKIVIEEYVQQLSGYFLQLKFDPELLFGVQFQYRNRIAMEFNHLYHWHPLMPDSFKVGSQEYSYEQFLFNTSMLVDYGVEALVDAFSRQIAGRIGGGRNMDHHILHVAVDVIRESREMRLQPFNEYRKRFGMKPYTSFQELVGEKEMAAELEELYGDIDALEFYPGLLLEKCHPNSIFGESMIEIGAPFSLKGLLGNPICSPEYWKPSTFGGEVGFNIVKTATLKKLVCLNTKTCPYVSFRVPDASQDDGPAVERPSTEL

COc1cc(/C=C/c2ccc(O)cc2)cc(OC)c1 [pterostilbene, trans-3,5-dimethoxy-4′-hydroxystilbene]
latency or distance to find the platform between the diet groups ([1]; Trial 1 or Trial 2, low and high dose vs control diet): no differences in latency or distance to find the platform
distance to find the platform, Trial 1 vs Trial 2 [1, 3]: significant (p<0.05) differences in distance
latency to find the platform, Trial 1 vs Trial 2 [1, 3]: significant (p<0.05) difference in latency
distance to find the platform, Trial 1 vs Trial 2 ([1]; low dose diet 0.004% (2.5 mg/kg body weight)): significant (p<0.05) differences in distance
latency to find the platform, Trial 1 vs Trial 2 ([1]; low dose diet 0.004% (2.5 mg/kg body weight), p=0.09): tended to improve from Trial 1 to Trial 2
spatial memory performance compared to control diet fed group ([1]; pterostilbene diets (low and high dose)): improved spatial memory performance
dopamine release (oxotremorine-enhanced striatal K+-ERDA) among diet groups (striatal slices; basal conditions (no H2O2), low and high dose vs control diet, p>0.05): no differences among the diet groups
dopamine release (oxotremorine-enhanced striatal K+-ERDA), H2O2-treated vs non-H2O2-treated (striatal slices; high dose diet 0.016%): no differences were seen following H2O2 treatment
dopamine release (oxotremorine-enhanced striatal K+-ERDA), H2O2-treated vs non-H2O2-treated (striatal slices; low dose diet 0.004%): no differences were seen following H2O2 treatment
inhibition of cyclooxygenase-1 (cyclooxygenase-1): moderate inhibition
azoxymethane-induced colonic aberrant crypt foci growth (weanling male F344 rats): suppressed azoxymethane-induced colonic aberrant crypt foci growth
antioxidant activity [2]: antioxidant activity similar to that of resveratrol
